Measurements published in EP0006452A1, “Hypoglycemic phenylpropynylamino benzoic acids, their salts, pharmaceutical compositions containing said compounds and their application” (THE DOW CHEMICAL COMPANY, priority 1978, dated 1980).

Tested on: alanine-induced hyperglycemic mice
Assay: Hypoglycemic activity in alanine-induced hyperglycemic mice (serum glucose lowering)
Type: in vivo
Details: for percent lowering of serum glucose as compared to controls: fasted male Swiss-Webster mice, 10 m moles/kg L-alanine i.p. 15 min later, serum glucose 60 min after compound, 100% = lowering to fasting glucose level; for ED50: Mus musculus, ip, 1 h, intraperitoneal, lowering of serum glucose in alanine-induced hyperglycemic fasted male Swiss-Webster mice, read-out: ED50 (effective dose)
Method: Alanine is the most glucogenic of the amino acids and also stimulates gluconeogensis in normal animals. Animals suffering from diabetes show an exaggerated hyperglycemic response to a protein or amino acid meal, therefore the hyperglycemic state induced by alanine closely parallels the response of a diabetic mammal.
Fifteen minutes later the same mice were injected intraperitoneally with 10 m moles/kg body weight of L-alanine. […] The control consisted of both fasted mice and mice injected with alanine only. The results are expressed as percent lowering of serum glucose from the alanine induced hyperglycemic level to the fasted control glucose level, i.e. lowering to the fasting glucose level is 100% lowering.

[1] = Dosage Level 7.5 mg/kg intraperitoneal
[2] = Dosage Level 15 mg/kg intraperitoneal
[3] = Dosage Level 30 mg/kg intraperitoneal
[4] = Dosage Level 60 mg/kg intraperitoneal

## O=C(O)c1ccc(NCC#Cc2ccccc2)cc1 [Example 1, 4-((3-phenyl-2-propynyl)-amino)benzoic acid]
[1]
  percent lowering of serum glucose as compared to controls: 36%
[2]
  percent lowering of serum glucose as compared to controls: 79%
[3]
  percent lowering of serum glucose as compared to controls: 98%
[4]
  percent lowering of serum glucose as compared to controls: 132%
  ED50: 8 mg/kg

## O=C([O-])c1ccc(NCC#Cc2ccccc2)cc1.[Na+] [Example 2, 4-((3-phenyl-2-propynyl)-amino)benzoic acid-sodium salt]
[1]
  percent lowering of serum glucose as compared to controls: 44%
[2]
  percent lowering of serum glucose as compared to controls: 69%
[3]
  percent lowering of serum glucose as compared to controls: 114%
[4]
  percent lowering of serum glucose as compared to controls: 139%
Summary of Table I, lowering the amount of glucose in the serum of the test animals
  hypoglycemic activity (in words): most active

## O=C(O)c1ccc(NCC#Cc2ccc(F)cc2)cc1 [Example 3, 4((3-(4-fluoro)phenyl-2-propynyl)amino)benzoic acid]
[1]
  percent lowering of serum glucose as compared to controls: 2%
[2]
  percent lowering of serum glucose as compared to controls: 66%
[3]
  percent lowering of serum glucose as compared to controls: 91%
[4]
  percent lowering of serum glucose as compared to controls: 172%
  ED50: 18 mg/kg

## O=C(O)c1ccc(NCC#Cc2ccc(Cl)cc2)cc1 [Example 4, 4-((3-(4-Chloro)phenyl-2-propynyl)amino)-ben zoic acid]
[4]
  percent lowering of serum glucose as compared to controls: 39%

## Cc1ccc(C#CCNc2ccc(C(=O)O)cc2)cc1 [Example 5, 4-((3-(4-Methyl)phenyl-2-propynyl)amino)benzoic acid]
[1]
  percent lowering of serum glucose as compared to controls: 9%
[2]
  percent lowering of serum glucose as compared to controls: 15%
[3]
  percent lowering of serum glucose as compared to controls: 118%
[4]
  percent lowering of serum glucose as compared to controls: 76%
  ED50: 21 mg/kg
